Experimental data published in US20220177533A1, “Recombinant TGF a for wound healing purposes, and the process thereof” (SREE CHITRA TIRUNAL INSTITUTE FOR MEDICAL SCIENCES AND …, priority 2018, published 2022).

Legend:
[1] = system: L929 cells; experiment: MTT assay in L929 cells; type: cell-based; conditions: for cell viability: MTT, L929 cells
Procedure: Prior testing in said in vivo model, an in vitro testing for the metabolic activity has been performed through executing MTT assay in a specific cell line.
The MTT assay is carried out in L929 cells (ATCC, USA). […] 92.26%, 90.30% and 88.87% under these concentrations respectively. […] The results obtained are depicted in FIG. 3.

[2] = system: skin (intra-cutaneous reactions); parameters: species or system rabbits (New Zealand White); conditions: rabbit, in vivo
From the text: (§1) The declaration for skin irritation test is hereby made as the recombinant TGFα induced a total mean score of ‘0.55’ in test material and ‘◯’ in solvent following intra-dermal injection.
(§2) For this study, 23 rabbits (New Zealand White) are taken and kept in a well-fed, healthy and aseptic condition to ensure the perfect outcome of the experimentation.

[3] = system: rabbit wounds; experiment: Wound healing study in rabbits, 4×4 cm incision on the back; type: in vivo, rabbits (New Zealand White)
From the text: as §2
Nine randomly selected rabbits (New Zealand White) are taken and a 4×4 cm incision was made right on the back of the animals. Following the application of Anesthetic Ketamine (Aneket, Neon Laboratories, India). This has been followed by application of recombinant TGFα to the “treated” group, and application of placebo, wherein except the growth factor, all the other conditions of “treated” group is followed.
It is found to initiate cell proliferation in rabbit wounds within 7 days. […] Thus, the recombinant growth factor TGF α found to be suitable for enhancing the healing of chronic wounds.

[4] = Antimicrobial / sterility test on test material
From the text: On the safety side, recombinant TGF α passed the skin irritation test, sterility test and cytotoxicity tests, and found to be suitable for enhancing the healing of chronic wounds.
as §1

recombinant TGF α: recombinant TGF α of 51 amino acids (Sequence ID No.: 1), carved out of 160 amino acid TGF α, expressed in a prokaryotic system
cytotoxicity tests outcome [1]: passed
cell viability ([1]; 0.0025 μg/ml): 92.16%
cell viability ([1]; 0.025 μg/ml): 92.26%
cell viability ([1]; 0.25 μg/ml): 90.30%
cell viability ([1]; 2.5 μg/ml): 88.87%
intra-cutaneous reactions (erythema and edema) [2]: No intra-cutaneous reactions such as erythema and edema
skin irritation test outcome [2]: passed
total mean score, skin irritation test [2]: 0.55
healing of chronic wounds ([3]; rabbit models): enhance the healing of chronic wounds
wound finding on 14th day ([3]; rabbit models, day 14): tissue regeneration and formation of epithelial layer
time to initiation of cell proliferation in rabbit wounds ([3]; rabbit, 4×4 cm incision): ≤ 7 days
vasculature and inflammatory response of the healing wound ([3]; treated vs control, FIGS. 4C and 4T): higher number of vasculature and almost no inflammatory response
antimicrobial test outcome [4]: meeting the requirements for dermal applications
sterility test outcome [4]: passed
